Source: ChEMBL document CHEMBL1156513, “Pharmacologic inhibition of tpl2 blocks inflammatory responses in primary human monocytes, synoviocytes, and blood” (J Biol Chem, 2007)
Blank lines part the entries; values can stand above or below the compound they belong to. Calls of active or inactive are those of the source. The calls are words filed in the database; no cut-off is given here.

Experiments:
Homo sapiens [1] = organism: Homo sapiens; assay: (§1) Inhibition of LPS-induced MEK phosphorylation in primary human monocytes by immunoblot analysis; assay type: cell-based
Homo sapiens [2] = organism: Homo sapiens; assay: (§2) Inhibition of LPS-induced ERK phosphorylation in primary human monocytes by immunoblot analysis; assay type: cell-based
[3] = biological target: Mitogen-activated protein kinase kinase kinase 8 (Homo sapiens, UniProt P41279); assay: Inhibition of human Tpl2 by ELISA
Sequence of Mitogen-activated protein kinase kinase kinase 8 (P41279 whole entry): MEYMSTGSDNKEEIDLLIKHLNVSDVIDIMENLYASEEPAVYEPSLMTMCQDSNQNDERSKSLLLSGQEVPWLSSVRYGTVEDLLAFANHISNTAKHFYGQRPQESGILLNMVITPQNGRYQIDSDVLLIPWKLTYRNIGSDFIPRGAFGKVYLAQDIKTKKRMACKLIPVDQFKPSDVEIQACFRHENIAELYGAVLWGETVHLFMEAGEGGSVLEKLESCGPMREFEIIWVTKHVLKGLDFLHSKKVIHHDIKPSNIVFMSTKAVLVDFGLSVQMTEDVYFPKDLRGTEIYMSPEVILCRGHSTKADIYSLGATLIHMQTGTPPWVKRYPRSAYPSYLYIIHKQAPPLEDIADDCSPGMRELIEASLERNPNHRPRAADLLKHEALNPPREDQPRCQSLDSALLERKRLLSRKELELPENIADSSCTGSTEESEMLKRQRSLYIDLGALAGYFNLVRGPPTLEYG

[4] = as §1; assay type: cell-based
[5] = as §2; assay type: cell-based
[6] = biological target: T1, MAP kinase-activated protein kinase 2 (Homo sapiens, UniProt P49137); assay: Inhibition of LPS-induced MK2 phosphorylation in primary human monocytes upto 5 uM by immunoblot analysis; assay type: cell-based
Target sequence in this assay (P49137 whole entry, looked up): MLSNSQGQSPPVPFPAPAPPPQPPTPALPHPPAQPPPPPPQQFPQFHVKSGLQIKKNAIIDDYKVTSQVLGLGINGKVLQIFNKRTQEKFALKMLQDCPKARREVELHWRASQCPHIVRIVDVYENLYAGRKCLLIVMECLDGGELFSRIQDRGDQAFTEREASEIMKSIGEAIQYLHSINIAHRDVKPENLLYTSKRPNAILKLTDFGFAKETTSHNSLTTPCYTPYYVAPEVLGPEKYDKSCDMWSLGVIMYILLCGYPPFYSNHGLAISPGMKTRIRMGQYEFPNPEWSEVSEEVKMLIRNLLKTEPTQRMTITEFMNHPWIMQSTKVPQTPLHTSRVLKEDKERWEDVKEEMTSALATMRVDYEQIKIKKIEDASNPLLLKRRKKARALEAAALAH

Homo sapiens [7] = organism: Homo sapiens; assay: Inhibition of LPS-induced c-Jun phosphorylation in primary human monocytes upto 5 uM by immunoblot analysis; assay type: cell-based
[8] = biological target: Mitogen-activated protein kinase 14 (Homo sapiens, UniProt Q16539); assay: Inhibition of human p38alpha by ELISA
Sequence of Mitogen-activated protein kinase 14 (Q16539 whole entry): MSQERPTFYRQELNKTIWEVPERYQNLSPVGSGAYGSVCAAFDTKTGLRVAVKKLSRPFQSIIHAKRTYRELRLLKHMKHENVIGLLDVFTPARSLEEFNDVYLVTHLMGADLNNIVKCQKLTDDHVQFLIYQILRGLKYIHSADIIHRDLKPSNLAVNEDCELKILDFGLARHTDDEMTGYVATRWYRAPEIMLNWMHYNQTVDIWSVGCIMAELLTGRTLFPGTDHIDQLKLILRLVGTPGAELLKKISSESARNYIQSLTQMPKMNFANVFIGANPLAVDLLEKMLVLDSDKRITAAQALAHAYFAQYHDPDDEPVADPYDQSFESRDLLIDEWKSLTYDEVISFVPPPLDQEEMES

[9] = Cytotoxicity against primary human monocytes at 5 uM; assay type: cell-based; details: monocyte
Monocyte [10] = assay: Inhibition of LPS-induced TNFalpha production in primary human monocytes; assay type: functional, cell-based
Monocyte [11] = assay: (§3) Inhibition of LPS-induced IL12p40 production in primary human monocytes; assay type: functional, cell-based
HeLa [12] = assay: Inhibition of TNF-alpha-induced ERK phosphorylation in human HeLa cells by immunoblot analysis; assay type: functional, cell-based
RA-FLS [13] = assay: Inhibition of IL-1-beta-stimulated PGE2 production in human RA-FLS cells after 4 hrs by ELISA; assay type: functional, cell-based
Monocyte [14] = assay: (§4) Inhibition of IL-1-beta-induced IL12p40 production in primary human monocytes at 5 uM; assay type: functional
[15] = Inhibition of IL-1-beta-stimulated IL8 production in human RA-FLS cells by immunoblot analysis; assay type: functional, cell-based
[16] = Inhibition of TNF-alpha-stimulated PGE2 production in human RA-FLS cells by immunoblot analysis; assay type: functional, cell-based
[17] = biological target: T2, Dual specificity mitogen-activated protein kinase kinase 6 (Homo sapiens, UniProt P52564); assay: Inhibition of human MKK6 by ELISA
T2 sequence (P52564 whole entry): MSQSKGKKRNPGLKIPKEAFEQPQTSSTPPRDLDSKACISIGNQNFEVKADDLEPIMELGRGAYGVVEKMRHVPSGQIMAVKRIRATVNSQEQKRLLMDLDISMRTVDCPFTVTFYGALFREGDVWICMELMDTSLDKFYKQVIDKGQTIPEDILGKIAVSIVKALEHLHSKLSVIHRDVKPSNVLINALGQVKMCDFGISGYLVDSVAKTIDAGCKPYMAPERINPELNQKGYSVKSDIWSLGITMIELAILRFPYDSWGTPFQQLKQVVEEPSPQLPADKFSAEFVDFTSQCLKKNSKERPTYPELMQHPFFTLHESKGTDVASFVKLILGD

[18] = Inhibition of IL-1-beta-induced ERK phosphorylation in primary human monocytes by immunoblot analysis; assay type: cell-based
Homo sapiens [19] = organism: Homo sapiens; assay: Inhibition of PMA-induced MEK phosphorylation in primary human monocytes by immunoblot analysis; assay type: cell-based
Blood [20] = assay: Inhibition of IL-1-beta-induced TNFalpha production in human blood; assay type: functional, tissue-based
[21] = Inhibition of IL-1-beta-stimulated IL6 production in human RA-FLS cells by immunoblot analysis; assay type: functional, cell-based
[22] = Inhibition of human JNK1alpha by scintiplate assay
Monocyte [23] = assay: Inhibition of IL-1-beta-induced TNFalpha production in primary human monocytes; assay type: functional, cell-based
HeLa [24] = assay: Inhibition of human MEK phosphorylation in Tpl2 transfected HeLa cells; assay type: cell-based
HeLa [25] = assay: Inhibition of human ERK phosphorylation in Tpl2 transfected HeLa cells; assay type: cell-based
[26] = biological target: Protein kinase C alpha type (Homo sapiens, UniProt P17252); assay: Inhibition of human PKCalpha by scintiplate assay
[27] = Cytotoxicity against human RA-FLS cells at =< 10 uM; assay type: cell-based
[28] = biological target: RAF proto-oncogene serine/threonine-protein kinase (Homo sapiens, UniProt P04049); assay: Inhibition of human Raf1
Sequence of RAF proto-oncogene serine/threonine-protein kinase (P04049 whole entry): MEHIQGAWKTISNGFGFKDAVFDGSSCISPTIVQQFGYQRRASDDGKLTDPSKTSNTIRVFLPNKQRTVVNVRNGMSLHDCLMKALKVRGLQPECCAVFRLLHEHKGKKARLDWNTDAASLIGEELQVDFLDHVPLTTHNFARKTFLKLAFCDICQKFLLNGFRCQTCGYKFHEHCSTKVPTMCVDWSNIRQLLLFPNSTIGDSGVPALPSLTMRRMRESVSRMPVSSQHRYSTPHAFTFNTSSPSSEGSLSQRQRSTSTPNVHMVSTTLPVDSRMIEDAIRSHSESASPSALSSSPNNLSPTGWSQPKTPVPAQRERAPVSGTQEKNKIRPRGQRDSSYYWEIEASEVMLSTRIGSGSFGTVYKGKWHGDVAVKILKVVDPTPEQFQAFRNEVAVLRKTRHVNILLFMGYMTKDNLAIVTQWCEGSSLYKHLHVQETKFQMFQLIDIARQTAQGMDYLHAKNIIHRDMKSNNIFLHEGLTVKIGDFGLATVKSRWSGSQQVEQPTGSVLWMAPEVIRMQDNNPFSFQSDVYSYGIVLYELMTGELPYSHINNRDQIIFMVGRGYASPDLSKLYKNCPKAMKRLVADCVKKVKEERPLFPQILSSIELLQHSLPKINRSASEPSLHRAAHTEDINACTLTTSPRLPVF

[29] = biological target: Proto-oncogene tyrosine-protein kinase Src (Homo sapiens, UniProt P12931); assay: Inhibition of human Src by ELISA
Sequence of Proto-oncogene tyrosine-protein kinase Src (P12931 2-536 limits assumed): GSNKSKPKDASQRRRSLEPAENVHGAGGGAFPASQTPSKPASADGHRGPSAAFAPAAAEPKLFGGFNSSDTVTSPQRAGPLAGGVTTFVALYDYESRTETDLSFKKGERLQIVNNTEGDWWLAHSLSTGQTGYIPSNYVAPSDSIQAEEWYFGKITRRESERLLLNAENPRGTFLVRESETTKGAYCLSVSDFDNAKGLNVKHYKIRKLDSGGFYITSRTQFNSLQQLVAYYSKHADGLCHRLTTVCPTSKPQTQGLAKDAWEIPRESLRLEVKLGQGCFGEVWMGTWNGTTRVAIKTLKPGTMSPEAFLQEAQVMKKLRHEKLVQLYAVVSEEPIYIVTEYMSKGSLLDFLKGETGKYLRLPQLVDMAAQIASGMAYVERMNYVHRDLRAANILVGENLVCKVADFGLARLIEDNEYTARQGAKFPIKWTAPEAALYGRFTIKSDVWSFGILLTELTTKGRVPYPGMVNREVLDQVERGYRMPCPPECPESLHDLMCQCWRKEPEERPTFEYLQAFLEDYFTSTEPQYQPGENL

Stromelysin-1 = Stromelysin-1 (Homo sapiens, UniProt P08254); assay: Inhibition of IL-1-beta-stimulated MMP3 in human RA-FLS cells by immunoblot analysis; assay type: cell-based
Sequence of Stromelysin-1 (P08254 whole entry): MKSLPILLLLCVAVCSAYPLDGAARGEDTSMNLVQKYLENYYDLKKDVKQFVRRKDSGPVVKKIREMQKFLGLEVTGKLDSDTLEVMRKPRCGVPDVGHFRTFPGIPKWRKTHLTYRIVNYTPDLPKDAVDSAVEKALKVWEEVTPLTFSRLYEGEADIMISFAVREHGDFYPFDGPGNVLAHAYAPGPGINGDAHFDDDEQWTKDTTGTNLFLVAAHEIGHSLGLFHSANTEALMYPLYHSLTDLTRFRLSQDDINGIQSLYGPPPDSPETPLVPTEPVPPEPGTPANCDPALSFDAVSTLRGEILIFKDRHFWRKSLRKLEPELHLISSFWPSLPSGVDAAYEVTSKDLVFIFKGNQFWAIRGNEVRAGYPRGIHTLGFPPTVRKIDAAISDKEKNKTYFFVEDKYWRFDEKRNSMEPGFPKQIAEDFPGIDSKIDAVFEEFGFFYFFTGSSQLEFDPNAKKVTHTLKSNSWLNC

Homo sapiens [30] = organism: Homo sapiens; assay: Inhibition of PMA-induced ERK phosphorylation in primary human monocytes by immunoblot analysis; assay type: cell-based
HeLa [31] = assay: Cytotoxicity against human HeLa cells; assay type: functional, cell-based
HEK293 [32] = assay: Inhibition of TNF-induced NF-kappaB activation in HEK293 cells upto 10 uM by luciferase assay; assay type: cell-based; details: Homo sapiens
[33] = Inhibition of human S6K by scintiplate assay
Blood [34] = assay: Inhibition of LPS-induced TNFalpha production in human blood; assay type: functional, tissue-based
[35] = biological target: MAP kinase p38 (Homo sapiens) (UniProt O15264+Q15759+Q16539+P53778); assay: Inhibition of LPS-induced p38 phosphorylation in primary human monocytes upto 5 uM by immunoblot analysis; assay type: cell-based
[36] = Inhibition of IL-1-beta-stimulated ERK phosphorylation in shuman RA-FLS cells by immunoblot analysis; assay type: cell-based; details: Homo sapiens
[37] = biological target: T1, MAP kinase-activated protein kinase 2; assay: Inhibition of human MK2 by scintiplate assay
Target sequence in this assay (P49137 whole entry): as the sequence (P49137 whole entry, looked up) above

Homo sapiens [38] = organism: Homo sapiens; assay: Effect on ERK activation in LPS-induced tpl2-/- mouse peritoneal macrophages
Monocyte [39] = assay: as §3; assay type: functional
[40] = biological target: Dual specificity mitogen-activated protein kinase kinase 1 (Oryctolagus cuniculus, UniProt P29678); assay: Inhibition of rabbit MEK1 by ELISA
Sequence of Dual specificity mitogen-activated protein kinase kinase 1 (P29678 whole entry): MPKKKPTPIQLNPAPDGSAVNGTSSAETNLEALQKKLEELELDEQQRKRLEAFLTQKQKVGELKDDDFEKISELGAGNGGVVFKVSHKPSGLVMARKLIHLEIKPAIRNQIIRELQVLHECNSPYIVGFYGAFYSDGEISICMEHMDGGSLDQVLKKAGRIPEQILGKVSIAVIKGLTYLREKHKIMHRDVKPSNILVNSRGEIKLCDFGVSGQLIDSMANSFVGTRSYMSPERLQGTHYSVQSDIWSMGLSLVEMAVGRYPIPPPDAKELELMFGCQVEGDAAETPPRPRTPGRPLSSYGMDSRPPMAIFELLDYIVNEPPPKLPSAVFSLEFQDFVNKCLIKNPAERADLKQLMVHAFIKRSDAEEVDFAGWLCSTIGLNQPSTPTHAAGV

[41] = Inhibition of IL-1-beta-stimulated MMP1 in human RA-FLS cells by immunoblot analysis; assay type: functional, cell-based
[42] = biological target: T3, Inhibitor of nuclear factor kappa-B kinase subunit beta (Homo sapiens, UniProt O14920); assay: Inhibition of human IKK-beta by ELISA
T3 sequence (O14920 whole entry): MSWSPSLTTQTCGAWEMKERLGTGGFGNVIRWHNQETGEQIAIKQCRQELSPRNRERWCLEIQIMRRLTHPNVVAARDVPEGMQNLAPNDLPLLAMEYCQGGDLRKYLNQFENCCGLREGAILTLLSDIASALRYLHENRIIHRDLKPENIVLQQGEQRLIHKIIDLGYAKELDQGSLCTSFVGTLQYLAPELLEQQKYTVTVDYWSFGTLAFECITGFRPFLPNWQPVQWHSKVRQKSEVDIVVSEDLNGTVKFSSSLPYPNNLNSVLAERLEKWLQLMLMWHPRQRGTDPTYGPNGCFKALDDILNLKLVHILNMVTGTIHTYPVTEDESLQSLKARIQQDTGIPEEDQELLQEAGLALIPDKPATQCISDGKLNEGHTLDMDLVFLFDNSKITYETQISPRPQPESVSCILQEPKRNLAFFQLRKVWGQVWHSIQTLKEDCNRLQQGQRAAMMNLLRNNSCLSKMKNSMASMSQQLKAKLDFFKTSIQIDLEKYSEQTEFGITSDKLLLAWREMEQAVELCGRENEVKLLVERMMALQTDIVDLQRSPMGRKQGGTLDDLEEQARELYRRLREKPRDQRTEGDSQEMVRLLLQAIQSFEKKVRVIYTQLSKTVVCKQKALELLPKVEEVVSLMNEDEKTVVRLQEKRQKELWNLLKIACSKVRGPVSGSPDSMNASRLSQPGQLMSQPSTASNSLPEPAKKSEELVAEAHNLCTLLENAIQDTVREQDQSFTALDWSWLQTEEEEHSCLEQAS

Mus musculus = organism: Mus musculus; assay: Effect on IL-1-beta-induced ERK phosphorylation in 129S5 mouse thioglycollate elicited peritoneal macrophages
[43] = Inhibition of IL-1-beta-stimulated PGE2 production in human RA-FLS cells by immunoblot analysis; assay type: functional, cell-based
[44] = Inhibition of human PKA by scintiplate assay
HeLa [45] = assay: Inhibition of IL8 production in human Tpl2 expressing HeLa cells after 17 hrs by ELISA; assay type: functional, cell-based
RA-FLS [46] = assay: Inhibition of IL-1-beta-stimulated COX2 expression in human RA-FLS cells after 4 hrs by immunoblot analysis; assay type: functional, cell-based
[47] = Inhibition of human CaMK2 by ELISA
[48] = Inhibition of IL-1-beta-induced MEK phosphorylation in primary human monocytes by immunoblot analysis; assay type: cell-based
Monocyte [49] = assay: as §4; assay type: functional, cell-based
[50] = biological target: T4, NF-kappa-B inhibitor alpha (Homo sapiens) (UniProt P25963); assay: Inhibition of LPS-induced IkappaBalpha phosphorylation in primary human monocytes upto 5 uM by immunoblot analysis; assay type: cell-based
T4 sequence (whole entry): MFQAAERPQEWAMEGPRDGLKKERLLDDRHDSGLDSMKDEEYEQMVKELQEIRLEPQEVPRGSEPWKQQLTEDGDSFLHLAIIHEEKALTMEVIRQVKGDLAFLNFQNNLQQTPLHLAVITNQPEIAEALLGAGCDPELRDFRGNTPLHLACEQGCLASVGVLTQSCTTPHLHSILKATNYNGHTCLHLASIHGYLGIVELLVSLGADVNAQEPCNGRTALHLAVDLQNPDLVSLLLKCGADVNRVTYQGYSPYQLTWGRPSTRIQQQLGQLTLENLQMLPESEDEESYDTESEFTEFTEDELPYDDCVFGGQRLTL

HeLa [51] = assay: Inhibition of TNF-alpha-induced IL8 production in human HeLa cells after 4 hrs; assay type: functional, cell-based
HEK293 [52] = assay: Inhibition of IL-1-beta-induced NF-kappaB activation in HEK293 cells upto 10 uM by luciferase assay; assay type: cell-based; details: Homo sapiens

SMILES: C[C@H](Nc1cc2c(Nc3ccc(F)c(Cl)c3)c(C#N)cnc2cn1)c1ccccc1
Activity (Homo sapiens [1]): inactive
Activity (Homo sapiens [2]): inactive

IC50 [3]: 16 nM
IC50 [4]: ≤ 1000 nM
IC50 [5]: ≤ 1000 nM
SMILES: C[C@@H](Nc1cc2c(Nc3ccc(F)c(Cl)c3)c(C#N)cnc2cn1)c1ccccc1

Activity [6]: inactive
IC50 [8]: > 100000 nM
IC50 (Monocyte [10]): 600 nM
IC50 (Monocyte [11]): > 5000 nM
IC50 (HeLa [12]): 2500 nM
IC50 [15]: 7900 nM
IC50 [16]: 700 nM
IC50 [17]: > 100000 nM
IC50 [3]: 12 nM
IC50 [18]: 300 nM
IC50 (Blood [20]): 7200 nM
IC50 [21]: 6900 nM
IC50 [22]: 65000 nM
IC50 (Monocyte [23]): 700 nM
IC50 [26]: > 100000 nM
IC50 [28]: > 100000 nM
IC50 [29]: > 100000 nM
IC50 (Stromelysin-1): 2300 nM
IC50 [33]: > 100000 nM
IC50 (Blood [34]): 5400 nM
Activity [35]: inactive
IC50 [36]: 300 nM
IC50 [37]: 48000 nM
Activity (Homo sapiens [38]): inactive
IC50 [40]: > 40000 nM
IC50 [41]: 4000 nM
IC50 [42]: 73000 nM
Activity (Mus musculus): Dose-dependent effect
IC50 [43]: 400 nM
IC50 [44]: > 100000 nM
IC50 (HeLa [45]): 1000 nM
IC50 [47]: 23000 nM
IC50 [4]: 500 nM
IC50 [48]: 500 nM
IC50 (Monocyte [49]): > 5000 nM
Activity [50]: inactive
IC50 [5]: 100 nM
IC50 (HeLa [51]): 200 nM
SMILES: N#Cc1cnc2c(Cl)cc(NCc3cnc[nH]3)cc2c1Nc1ccc(F)c(Cl)c1
Activity (Homo sapiens [7]): inactive
Activity [9]: Non-toxic
Activity (RA-FLS [13]): Active
inhibition at 5 µM (Monocyte [14]): 30%
Activity (Homo sapiens [19]): inactive
Activity (HeLa [24]): Active
Activity (HeLa [25]): Active
Activity [27]: Non-toxic
Activity (Homo sapiens [30]): inactive
Activity (HeLa [31]): inactive
Activity (HEK293 [32]): inactive
inhibition (INH) (Monocyte [39]): 39%
Activity (RA-FLS [46]): Active
Activity (HEK293 [52]): inactive
